{"source": "paper PMC6934184", "about": "“Selective DNA-PKcs inhibition extends the therapeutic index of localized radiotherapy and chemotherapy” (The Journal of Clinical Investigation, 2019)", "target": "T1, MAP2K6 (MKK6) (Homo sapiens, UniProt P52564)", "T1 construct": "purchased Thermo Fisher Scientific (Life Technologies) SelectScreen", "T1 sequence (P52564 whole entry)": "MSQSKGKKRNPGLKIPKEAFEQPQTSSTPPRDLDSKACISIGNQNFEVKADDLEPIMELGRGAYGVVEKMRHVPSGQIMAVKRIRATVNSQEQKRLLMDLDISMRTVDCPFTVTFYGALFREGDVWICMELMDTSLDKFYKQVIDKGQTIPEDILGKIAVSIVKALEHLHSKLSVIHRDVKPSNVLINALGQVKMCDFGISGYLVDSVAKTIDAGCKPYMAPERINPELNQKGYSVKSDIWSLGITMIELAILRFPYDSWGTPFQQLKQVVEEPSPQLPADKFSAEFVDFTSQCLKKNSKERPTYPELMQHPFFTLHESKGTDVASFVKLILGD", "assay": "SelectScreen Z'LYTE", "type": "biochemical", "conditions": "ATP 100 µM", "method_in_brief": "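NU5455 was profiled across the SelectScreen Broad panel of kinase activity and binding assays. Z'LYTE reactions such as CSF1R ran at apparent Km ATP, while the Adapta CAMK1 assay used ATP listed as 10. Values are given as percent.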"}
{"smiles": "CN(C(=O)CN1CCOCC1)c1ccc2sc3c(-c4cccc5c(=O)cc(N6CC7CCC(C6)O7)oc45)cccc3c2c1", "note": "[NU5455]", "values": [{"measurement": "inhibition at 1 µM", "result": 1.8, "unit": "%"}]}
